Several values for one entry are separate records, joined by “and”; a condition that tells them apart may be missing. Equal values may be shown once.
Columns and labels:
LnCaP = test: MTT growth inhibition, prostate cancer cell line LnCaP; type: cell-based, human; conditions: for IC50: Homo sapiens, LNCaP, MTT assay, average of three independent experiments
Method: (§1) This MTT assay was carried using human prostate cancer cell lines CWR22R, LAPC-4 and LnCap using Promega cell titer 96 nonradioactive cell proliferation kits. Cells were trypsinized and centrifuged at 1000 rpm for 5 minutes and the supernatant was aspirated. Cells were resuspended with HBSS to a concentration of 10^6/ml. Cell suspension was diluted in serum containing medium to plate 2000 cells/well/0.2 ml. Cell suspension was transferred to sterile solution basin. Cells were plated using multichannel pipette set at 200 μl and incubated overnight for attachment. One plate was prepared for day 0 MTT assay as follows: 100 μl of media was removed from each well using multichannel pipette and 15 μl of MTT reagent was added. Plates were incubated at 37° C. for 4 hrs. […] of STOP solution was added to each well and incubated at room temperature for 1 hour. Absorbance was measured at 570 and 650 nm on plate reader. All the media from the remaining plates were carefully removed and the cells were treated with the media containing drug. MTT assays were done on days 0, 3, 5 and 7. In the preliminary screening […] BPU sulfur analogs 6l, 6h, 6n, 7d and 8h were screened and their activity was compared with compound 1.
(§2) Compounds with significant inhibitory activity in pancreatic cancer cells were further evaluated against prostate cancer cell lines in the MTT assay, (Mosmann, T., J. Immunol. Methods 65:55-63 (1983)) and the results were compared to those for compound 1 (Table 3).

LAPC-4 = test: MTT growth inhibition, prostate cancer cell line LAPC-4; type: cell-based, human; conditions: for IC50: Homo sapiens, LAPC4, MTT assay, average of three independent experiments
Method: as §1, §2

[1] = tested on: pancreas cancer xenografts; test: In vivo growth inhibition of patient-derived pancreas cancer xenografts; parameters: species or system athymic nude mice; conditions: for average growth after 28 days of treatment (T/C): individual patient xenograft cases; for efficacy in case 194: case with the greatest expression of MAPT; for slopes of treated versus control group, all nine cases: integrated analysis of nine treatment groups; for efficacy in case 215: low MAPT-expressing case, docetaxel 30 mg/kg i.p. once a week for 2 weeks
Method: Six-week-old female athymic nude mice (Harlan) were used. The research protocol was approved by the Johns Hopkins University Animal Care and Use Committee, and animals were maintained in accordance to guidelines of the American Association of Laboratory Animal Care. Surgical non-diagnostic specimens from patients who had undergone surgery at the Johns Hopkins Hospital were implanted s.c. in one to two mice for each patient, with two small pieces per mouse (F1 generation). Tumors were grown to 1.5 cm^3 and then harvested, divided into small ˜3×3×3 mm pieces, and transplanted to another five mice, with two tumors per mouse (F2 generation). After a second growth passage, tumors were excised and propagated to cohorts of ≧20 mice. These groups constituted the F3, or treatment cohort. Tumors from this third mouse-to-mouse passage were allowed to grow to ˜200 mm3, at which time mice were randomized into three treatment groups, with five to six mice (10 evaluable tumors) in each group: control (vehicle), 6n (50 mg/kg i.p. twice per week), and 7d (50 mg/kg i.p. twice per week). Docetaxel treatment was given to selected groups at a dose of 30 mg/kg i.p. once a week for 2 weeks. Mice were monitored daily for signs of toxicity and were weighed thrice per week. Tumor size was evaluated twice per week by caliper measurements using the following formula: tumor volume=[length×width^2]/2. Relative tumor growth inhibition was calculated by relative tumor growth of treated mice divided by relative tumor growth of control mice from the onset of therapy (T/C).
To assess the treatment effect, a hierarchical linear regression model was used with random intercepts and fixed slopes. Based on the results of exploratory plots, the assumption of fixed effects for slopes seemed reasonable. This model allowed for mouse effects to be nested within patient effects so that the hierarchical structure is fully accounted for. Specifically, the following linear regression model was fitted: log(γiJt)=a1ijtimeijt+b2jtimeijt×trtij+βtime^2ijt+eijt where j indexes patient, i indexes mouse, and t indexes time; yijt is the percentage change in tumor volume (compared with day 0) in mouse i, which is a xenograft for patient j at time t; and trtij is treatment (1=treated, 0=control) received by mouse i, which is a xenograft for patient j. […] An intercept and main effect of treatment were not included in the model that makes two assumptions: (a) at time 0, the change from baseline is 0 (which is empirically true), and (b) at baseline, the treated and untreated curves intersect. The model was fit using Win-Bugs software that estimates models using a Markov chain Monte Carlo estimation procedure. A burn-in of 10,000 iterations was done, and then the chain was run for an additional 20,000 iterations, of which every 10th iteration was saved for inference. Several chains were run with different starting values to ensure convergence. No convergence issues arose. The fitted model was used to make inferences with respect to the treatment effect and to create fitted regression lines (rescaled on the Y-axis for clearer interpretation). Point estimates of variables of interest (e.g., expected difference in tumor volume between treated and control at 28 days) and 95% credible intervals were based on the mean of posterior distributions and the 2.5th and 97.5th quantiles of the posterior distribution, respectively. The comparisons between means and proportions obtained from the biological studies were done using Student's t-test and χ^2 method, respectively. ANOVA was used when three or more variables were compared.
Tumors from nine cases of pancreatic cancer were used to establish xenografts in nude mice, and the animals were treated with either vehicle, 6n, or 7d (FIG. 36A). The level of efficacy varied both between drugs and within cases treated with each drug. FIG. 37 provides an integrated summary of all data points obtained in the studies. […]

CWR22R = test: MTT growth inhibition, prostate cancer cell line CWR22R; type: cell-based, human; conditions: for IC50: Homo sapiens, 22Rv1, MTT assay, average of three independent experiments
Panc430 = test: MTT growth inhibition, pancreatic cell line Panc430; type: cell-based; conditions: for IC50: MTT assay, 96 h treatment, average of three independent experiments
Method: Eight of these analogs 6d, 6h, 6n, 6g, 7b, 7d, 8g, and 8h were tested for their cytotoxicity in seven pancreatic cell lines ASPC1, Panc1, Panc203, Panc430, Pane 1005, MiaPaca2, and HS766T using MTT assay. Cells were trypsinized, seeded at 5×10^3 cells/well in 96-well plate and allowed to grow for 24 hours before the treatment with exponential increasing concentrations of drugs in the presence of 10% FBS. After a 96-hours period of treatment, 20 μl of MTT solution (5 mg/ml in PBS) were added to each well, and the plates were then incubated for 3 hours at 37° C. Medium was then replaced with 100 μl of DMSO per well. Plates were shaken and the optical density was measured at 570 nm using a multiwell plate reader (Bio-Rad, Model 550, Bio-Rad Inc., Hercules, Calif.). Each experiment was performed in triplicate for each drug concentration and was carried out independently at least 3 times. The IC50 value was defined as the concentration needed for a 50% reduction in the absorbance calculated based on the survival curves. Response to drug treatment was assessed by standardizing treatment groups to untreated controls. Compounds activity was compared with compound 1.
Table 2 (Growth Inhibition of Pancreatic Cancer Cell Lines by BPU and BPTU Analogues (IC50) a) compares the cytotoxicity of a series of new derivatives against a panel of seven pancreatic cancer cell lines, as determined by MTT assay. See, Mosmann, T., J. Immunol. Methods 65:55-63 (1983).

Row | Compound | IC50 (LnCaP) | IC50 (LAPC-4) | increase in activity compared to 7c (LAPC-4; LAPC-4) | average growth after 28 days of treatment (T/C) ([1]; 50 mg/kg i.p. twice per week) | efficacy in case 194 [1] | slopes of treated versus control group, all nine cases [1] | efficacy in case 215 [1] | IC50 (CWR22R) | IC50 (Panc430) | increase in activity compared to 7c (Panc430; Panc430) | increase in potency over 6m (LnCaP; LnCap) | proportion of sensitive cases, above the median MAPT expression ([1]; 50 mg/kg i.p. twice per week) | proportion of sensitive cases, below the median MAPT expression ([1]; 50 mg/kg i.p. twice per week) | efficacy compared with docetaxel ([1]; direct comparison in three cases) | efficacy compared with erlotinib ([1]; same patient-derived xenografts) | increase in potency over 6m (CWR22R; CWR22R) | increase in potency over 6m (Panc430; Panc430)
1 | Nc1ccccc1C(=O)NC(=O)Nc1ccc(Sc2ncc(Br)cn2)cc1 [Compound 7d] | 500 nM | 100 nM | 7 fold | 43% and 59% | inactive | no statistical differences | particularly efficacious | 500 nM | 200 nM | > 50 fold |  |  |  |  |  |  | 
2 | O=C(NC(=O)c1ccccc1[N+](=O)[O-])Nc1ccc(Sc2ncc(Br)cn2)cc1 [Compound 6n, 1-[4-(5-Bromopyrimidin-2-ylsulfanyl)phenyl]-3-(2-nitrobenzoyl)-urea] | 50 nM | 50 nM |  | ≤ 50% and 60% | inactive | no statistical differences | particularly efficacious | 50 nM | 90 nM |  | 20 fold | 0 of 4 | 4 of 5 | at least as efficacious (if not better) than docetaxel | superior to erlotinib | 100 fold | 111 fold
